“Also recorded” adds a separate entry of the source.
How the values were obtained:
Assay type in all cases: cell-based
[1] = tested on: M2R mouse melanoma cells; assay: Photodynamic toxicity to melanoma cell monolayer: morphology and Propidium Iodide staining; settings: 4×10^−6M pigment, 10 min irradiation at 670 nm (light source A), examined 3 h later
Protocol: The photodynamic effect of Chlidea and Chla-L-Ser-OMe conjugate on melanoma cells in culture was tested as follows: M2R mouse melanoma cells as monolayers (to 100% confluence) were treated with the pigments Chla, Chlidea and Chla-L-Ser-OMe for 30 minutes. Subsequently the cultures were irradiated for 10 minutes from the top with a 5mW GaAs diode laser at 670 nm (light source A), a 150W Xenon lamp at 5000 μEinstein/cm^2 (light source B), or a 90W halogen lamp at 1500 μEinstein (light source C). The control groups included untreated cells, pigment- treated cells that were kept in the dark and irradiated untreated cells. Three hours after irradiation, the changes in cell morphology due to irradiation were examined by phase contrast microscopy.
Evaluation of the cytolytic activity of the various Chl and Bchl derivatives was carried out by assessing cell death in the photodynamically treated area of the monolayer by staining of the cells with, and monitoring the red fluorescence of, Propidium Iodide ([2,7-diamino-9-phenyl-10-(diethylamino-propyl)-phenathridinium iodide meth-iodide]) (PID) which is excluded from intact/live cells and selectively accumulates in nuclei of damaged cells. Examination of fluorescing nuclei in the stained culture was done by fluorescence microscopy (Yeh, 1981). […]

[2] = tested on: Propionibacterium Acnes (under aerobic conditions)
Protocol: (§1) 1. Preincubation: Bacteria or viruses were preincubated in the absence (untreated control) or presence of increasing concentration of photosensitizer for 1-2 h at room temperature or 37° C. in the dark.
(§2) 2. Illumination: One set of untreated control and one set of sensitizer treated samples were exposed to light for 5-10 min. An identical group was kept in the dark (dark control).
(§3) 3. Viability: samples of the controls and experimental groups were subjected for quantitation of survival and viability was calculated as per cent of untreated control.
(§4) The light source for illumination was a 250W halogen lamp. The light was focused on a glass support and filtered to eliminate light below 630 nm. The light intensity at the target level was 1500 μEinstein/cm^2. Illumination for Bchl-Ser against S. aureus was performed as described Example 17 herein.
(§5) Stocks of bacteria (S. aureus, B. subtilis, E. coli) were preserved on solid LB agar slants at 4° C. Two hours prior to the experiment, bacteria were transferred to liquid LB media and grown at 37° C. with continuous shaking. P. Acnes (ATCC-CR 6919) bacteria were grown on agar 1053 reinforced clostridial medium (Oxoid CM 149 ) and incubated at 37° C. Culturing was performed in transparent culture jars made anaerobic with a gas generator envelop containing palladium catalyst, (Gas pack Plus Anaerobic system envelopes with Palladium catalyst, Beckton Dickenson Cockesyville Md. 21030 USA) (anaerobic culture) or in the open air (aerobic culture) The bacteria were incubated for 3-4 days before the experiments were carried out.
(§6) Aliquots (20 or 30 μl) of bacterial suspensions were plated on LB agar plates for 24 h at 37° C. ((S. aureus, B. subtilis, E. coli)) or on agar 1053 reinforced clostridial medium (P.acnes). Colonies were counted and per cent viability was calculated from untreated control.
(§7) P. Acnes bacteria at an optical density of A650 nm=0.014 were diluted in PBS to 1:10^−3 and divided into test tubes. Samples of 200 μl were either non treated or incubated with increasing concentration of Chl-Ser. Samples kept in dark were rapped with aluminum foil. All the tubes were placed in the anaerobic jar and incubated for 2 h at 37° C. The anaerobic chamber was placed on the glass support of the light source and samples were illuminated for 5 min. Test tubes with bacteria and sensitizers for the aerobic experiments were left in culture incubator for 2 h and exposed to light for 5 min in the open air. Samples of 20 μl from the anaerobic and aerobic experiments were taken out and spread onto agar plates and culture under anaerobic conditions. After 4 days of anaerobic incubation at 37° C. the colonies formed were counted and per cent viable cells calculated from control. Survival curves were determined based on 6-7 experiments. PDT experiments performed on S. Aureus with Bchl-Ser were conducted as described in Example 17 herein.

[3] = tested on: Propionibacterium Acnes (under anaerobic conditions)
Protocol: as §1, §2, §3, §4, §5, §6, §7

SMILES: C=Cc1c(C)c2cc3nc(c4c5[n-]c(cc6nc(cc1[n-]2)C(C)=C6CC)c(C)c5C(=O)[C@@H]4C(=O)OC)[C@@H](CCC(=O)OC[C@H](N)C(=O)OC)[C@@H]3C.[Mg+2] [Chla-L-Ser-OMe, L-seryl Methyl Ester Chlorophyllidea]
- cell damage: morphology and PID labeling after irradiation [1]: cell damage was confined to the photodynamically treated area; also recorded: all the remaining damaged cells in area (A) became PID labeled
- colony counts with sensitizer alone in dark [2]: not different from those of untreated samples
- LD50 ([2]; aerobic conditions, light 5 min): 10 nM
- phototoxicity in the presence of light ([2]; concentration range of 0.1 to 1×10^−7M, aerobic): dose dependent phototoxicity
- colony counts with sensitizer alone in dark [3]: not different from those of untreated samples
- LD50 ([3]; anaerobic conditions, light 5 min): 30 nM
- phototoxicity in the presence of light ([3]; concentration range of 0.1 to 1×10^−7M, anaerobic): dose dependent phototoxicity
